IC50 data for two compounds are collected here from publication PMC12809504, “Polo-like kinase 1–inhibitor co-complex structures via the surface-entropy reduction approach and a DARPin-assisted approach” (Acta Crystallographica Section D: Structural Biology, 2025).

SMILES strings stand for the structures.

The target of test [1] is T1, Polo-like kinase 1 (PLK1) (Homo sapiens, UniProt P53350). As to the kind of experiment: (soak, […] Å); IC50 by TR-FRET kinase assay at […] ATP. The class given is biochemical. Further details: kinase domain, residues 33–345 (Ala33–Lys345), PLK1^WT; with DARPin 3H10 (crystal structure only). (In general: In TR-FRET formats the signal depends on donor and acceptor labels being close together.)

The target of test [2] is T1, Polo-like kinase 1 (PLK1). The experiment in a line: TR-FRET kinase-activity assay, […] ATP. The class given is biochemical. Further details: kinase domain, residues 33–345, PLK1^WT.

T1 sequence (P53350 33-345): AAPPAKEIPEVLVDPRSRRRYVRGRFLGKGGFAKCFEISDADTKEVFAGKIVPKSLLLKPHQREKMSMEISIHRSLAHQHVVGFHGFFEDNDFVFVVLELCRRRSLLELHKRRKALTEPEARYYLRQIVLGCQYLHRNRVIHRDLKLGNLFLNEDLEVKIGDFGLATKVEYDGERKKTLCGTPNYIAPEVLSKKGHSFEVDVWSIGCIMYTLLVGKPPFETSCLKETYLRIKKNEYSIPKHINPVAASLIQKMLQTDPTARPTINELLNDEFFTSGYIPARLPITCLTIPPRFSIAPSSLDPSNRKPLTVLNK

The term IC50 denotes the concentration needed to halve the response being measured. A lower IC50 goes with higher potency. In test [1], `CCn1c(=O)c(=CNc2ccnc(N(C)C3CCN(C)CC3)c2)s/c1=C(/C#N)C(=O)NCC(F)(F)F` [compound 1, (2Z)-2-cyano-2-{3-ethyl-5-[({2-[methyl(1-methylpiperidin-4-yl)amino]pyridin-4-yl}amino)methylidene]-4-oxo-1,3-thiazolidin-2-ylidene}-N-(2,2,2-trifluoroethyl)acetamide] registered an IC50 of 3.6 ± 2.3 nM.

Turning to `CCn1c(=C(C#N)C(=O)NCC(F)(F)F)sc(=CNc2cccc(CCN3CCCC3)c2)c1=O` [ZK-Thiazolidinone], the IC50 in test [2] stood at 178 ± 52.6 nM.
